Molecules are shown by their SMILES. Counter-ions that a name gives are not always drawn.

In this assay the target is T1, recombinant human TGR5 (Homo sapiens, UniProt Q8TDU6).
T1 construct: expressed in transfected cells
T1 sequence (Q8TDU6 1-330): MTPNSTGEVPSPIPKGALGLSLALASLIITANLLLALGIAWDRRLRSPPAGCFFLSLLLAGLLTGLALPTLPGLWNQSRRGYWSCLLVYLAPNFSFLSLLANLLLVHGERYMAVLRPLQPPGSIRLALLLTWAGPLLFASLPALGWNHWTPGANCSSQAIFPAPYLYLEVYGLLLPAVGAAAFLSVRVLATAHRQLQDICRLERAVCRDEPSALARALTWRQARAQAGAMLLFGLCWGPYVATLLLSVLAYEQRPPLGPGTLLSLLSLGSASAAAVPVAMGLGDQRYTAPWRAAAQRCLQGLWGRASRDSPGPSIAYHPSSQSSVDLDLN
Briefly: cAMP assay (cAMP accumulation, HTRF) in CHOK1 cells stably expressing TGR5. It counts as cell-based. Conditions: CHOK1 cells stably expressing human TGR5, 30 minutes at RT, 1% DMSO. The gist of the method: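 Agonist-induced cAMP accumulation: stable TGR5-CHOK1 cells treated 30 min at RT with compound (1% DMSO) plus 0.1 mM IBMX. HTRF ratio converted to nM cAMP via standard curve; EC50 from four-parameter logistic fit, midpoint between baseline and maximum.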
(cAMP levels reflect the balance of adenylyl cyclase and phosphodiesterase activity.)
Usually EC50 stands for the concentration that produces a half-maximal response. Take `Cc1cccc(OCCCC(=O)N2CC3CC3c3c(-c4cnn(Cc5c(F)cc(C(=O)NCCC[C@H](NC(=N)N)C(=O)O)cc5Cl)c4)cccc32)c1C` (stereo partly drawn) [Example 69F, (2S)-5-(3-Chloro-4-((4-(3-(4-(2,3-dimethylphenoxy)butanoyl)-1a,2,3,7b-tetrahydro-1H-cyclopropa[c]quinolin-7-yl)-1H-pyrazol-1-yl)methyl)-5-fluorobenzamido)-2-guanidinopentanoic acid]: the EC50 was determined as 54 nM.
As for `Cc1cccc(OCCCC(=O)N2CCCc3c(-c4cnn(Cc5cccc(NC(=O)C(N)C(O)(C(F)(F)F)C(F)(F)F)c5)c4)cccc32)c1C` (stereo not drawn) [Example 500, 2-Amino-N-(3-((4-(1-(4-(2,3-dimethylphenoxy)butanoyl)-1,2,3,4-tetrahydroquinolin-5-yl)-1H-pyrazol-1-yl)methyl)phenyl)-4,4,4-trifluoro-3-hydroxy-3-(trifluoromethyl) butanamide], the concentration giving a half-maximal response (EC50) came to 195 nM.
In the case of `Cc1cccc(OCCCC(=O)N2CCCc3c(-c4cccc(COC(=O)NC[C@H](NC(=N)N)C(=O)O)c4)cccc32)c1C` [Example 168F, (S)-3-((3-(1-(4-(2,3-Dimethylphenoxy)butanoyl)-1,2,3,4-tetrahydroquinolin-5-yl)benzyloxy)carbonylamino)-2-guanidinopropanoic acid] it was 590 nM; in that of `Cc1cccc(OCCCC(=O)N2CCCc3c(-c4cnn(CCNC(=O)C5(C(=O)O)CC5)c4)cccc32)c1C` [Example 110H, 1-(2-(4-(1-(4-(2,3-Dimethylphenoxy)butanoyl)-1,2,3,4-tetrahydroquinolin-5-yl)-1H-pyrazol-1-yl)ethylcarbamoyl) cyclopropanecarboxylic acid], 6560 nM; in that of `Cc1c(Cl)cccc1OCCCC(=O)N1C[C@@H]2C[C@@H]2c2c(-c3cnn(Cc4cccc(N)c4)c3)cccc21` [Example 924A, 1-((1aR,7bS)-7-(1-(3-Aminobenzyl)-1H-pyrazol-4-yl)-1a,2-dihydro-1H-cyclopropa[c]quinolin-3(7bH)-yl)-4-(3-chloro-2-methylphenoxy)butan-1-one, TFA salt], 38 nM.
With `Cc1cccc(OCCCC(=O)N2CCCc3c(-c4cccc(COC(=O)N[C@H](CO)C(=O)O)c4)cccc32)c1C` [Example 282, (R)-2-((3-(1-(4-(2,3-Dimethylphenoxy)butanoyl)-1,2,3,4-tetrahydroquinolin-5-yl)benzyloxy)carbonylamino)-3-hydroxypropanoic acid], the concentration for a half-maximal effect (EC50) is 664 nM.
For the compound `Cc1c(Cl)cccc1OCCCC(=O)N1C[C@@H]2C[C@@H]2c2c(-c3cnn(Cc4cccc(NC(=O)NCC(=O)O)c4)c3)cccc21` [Example 916, 2-(3-(3-((4-((1aR,7bS)-3-(4-(3-Chloro-2-methylphenoxy)butanoyl)-1a,2,3,7b-tetrahydro-1H-cyclopropa[c]quinolin-7-yl)-1H-pyrazol-1-yl)methyl)phenyl)ureido) acetic acid], the 50% effective concentration (EC50) came to 37 nM.
On to `COC(=O)c1ccc(Cl)c(Cn2cc(-c3cccc4c3SCCN4C(=O)OCCOc3cccc(Cl)c3C)cn2)c1` [Example 367, 2-(3-Chloro-2-methylphenoxy)ethyl 8-(l-(2-chloro-5-(methoxycarbonyl)benzyl)-1H-pyrazol-4-yl)-2H-benzo[b][1,4]thiazine-4(3H)-carboxylate], for which the EC50 is 186 nM.
The figure for `Cc1cccc(OCCCC(=O)N2CCOc3c(-c4cnn(Cc5cccc(S(=O)(=O)N[C@@H](CCC[N+](C)(C)C)C(=O)O)c5)c4)cccc32)c1C` [Example 505, (S)-4-Carboxy-4-(3-((4-(4-(4-(2,3-dimethylphenoxy)butanoyl)-3,4-dihydro-2H-benzo [b][1,4]oxazin-8-yl)-1H-pyrazol-1-yl)methyl)phenyl-sulfonamido)-N,N, N-trimethylbutan-1-aminium, TFA salt] is 1730 nM.

These data come from patent publication US9062028B2, “Bicyclic nitrogen containing heteroaryl TGR5 receptor modulators” (Bristol-Myers Squibb Company, priority 2011, dated 2015).
